According to ChEMBL document CHEMBL1129873, “PYRIDONE-BASED PEPTIDOMIMETIC INHIBITORS OF INTERLEUKIN-1-CONVERTING ENZYME (ICE)” (Bioorg Med Chem Lett, 1997):

target: T1, Caspase-1 (Homo sapiens, UniProt P29466); test: Reversible inhibition of recombinant human IL-1 beta converting enzyme.
T1 sequence (P29466 whole entry): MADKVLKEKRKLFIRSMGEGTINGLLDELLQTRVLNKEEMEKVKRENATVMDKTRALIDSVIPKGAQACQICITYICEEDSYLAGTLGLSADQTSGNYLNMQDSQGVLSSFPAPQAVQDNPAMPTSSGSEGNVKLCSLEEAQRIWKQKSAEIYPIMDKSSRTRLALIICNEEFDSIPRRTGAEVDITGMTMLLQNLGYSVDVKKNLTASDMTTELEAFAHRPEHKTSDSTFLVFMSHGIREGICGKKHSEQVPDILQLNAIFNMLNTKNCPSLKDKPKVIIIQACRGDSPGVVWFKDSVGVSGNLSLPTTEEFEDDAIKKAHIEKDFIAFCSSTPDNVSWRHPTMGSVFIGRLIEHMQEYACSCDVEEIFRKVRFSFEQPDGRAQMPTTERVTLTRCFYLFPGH

Compound	Ki
CC(=O)N[C@@H](Cc1ccc(O)cc1)C(=O)N[C@H](C(=O)N[C@@H](C)C(=O)N[C@@H](CC(=O)O)C(=O)COc1ccccc1)C(C)C	1.1 nM
O=C(O)C[C@H](NC(=O)Cn1c(Cc2ccccc2)ccc(NC(=O)c2cccc3ccccc23)c1=O)C(=O)COc1ccccc1	10 nM
CCC(C(=O)N[C@@H](CC(=O)O)C(=O)COc1ccccc1)n1cccc(NC(=O)c2ccc3ccccc3c2)c1=O (some centres not stated)	1.4 nM
O=C(O)C[C@H](NC(=O)C(c1ccccc1)n1cccc(NC(=O)c2ccc3ccccc3c2)c1=O)C(=O)COc1ccccc1 (some centres not stated)	1.3 nM
CCCC(C(=O)N[C@@H](CC(=O)O)C(=O)COc1ccccc1)n1c(-c2ccccc2)ccc(NC(=O)c2cccc3ccccc23)c1=O (some centres not stated)	7200 nM
COCC(C(=O)N[C@@H](CC(=O)O)C(=O)COc1ccccc1)n1cccc(NC(=O)c2ccc3ccccc3c2)c1=O (some centres not stated)	7.1 nM
CCc1ccc(NC(=O)c2cccc3ccccc23)c(=O)n1CC(=O)N[C@@H](CC(=O)O)C(=O)COc1ccccc1	40 nM
O=C(O)C[C@H](NC(=O)C(c1ccccn1)n1cccc(NC(=O)c2ccc3ccccc3c2)c1=O)C(=O)COc1ccccc1 (some centres not stated)	2 nM
Cc1ccc(NC(=O)OCc2ccccc2)c(=O)n1CC(=O)N[C@@H](CC(=O)O)C(=O)COc1ccccc1	590 nM
CCC(C(=O)N[C@@H](CC(=O)O)C(=O)COc1ccccc1)n1cccc(NC(=O)c2cccc3ccccc23)c1=O (some centres not stated)	2.2 nM
CC(C)[C@H](NC(=O)c1ccc2ccccc2c1)C(=O)N[C@@H](C)C(=O)NC(CC(=O)O)C(=O)COc1ccccc1 (some centres not stated)	0.15 nM
O=C(O)C[C@H](NC(=O)C(c1ccccc1)n1cccc(NC(=O)c2cccc3ccccc23)c1=O)C(=O)COc1ccccc1 (some centres not stated)	1.8 nM
CCCc1ccc(NC(=O)c2cccc3ccccc23)c(=O)n1CC(=O)N[C@@H](CC(=O)O)C(=O)COc1ccccc1	68 nM
CC(C)C(C(=O)N[C@@H](CC(=O)O)C(=O)COc1ccccc1)n1cccc(NC(=O)c2cccc3ccccc23)c1=O (some centres not stated)	21 nM
Cc1ccc(NC(=O)c2ccccc2)c(=O)n1CC(=O)N[C@@H](CC(=O)O)C(=O)COc1ccccc1	530 nM
CCCCc1ccc(NC(=O)c2cccc3ccccc23)c(=O)n1CC(=O)N[C@@H](CC(=O)O)C(=O)COc1ccccc1	16 nM

Compound	Ki
O=C(O)C[C@H](NC(=O)Cn1c(-c2ccccc2)ncc(NC(=O)c2cccc3ccccc23)c1=O)C(=O)COc1ccccc1	66 nM
CCCCc1ncc(NC(=O)c2cccc3ccccc23)c(=O)n1CC(=O)N[C@@H](CC(=O)O)C(=O)COc1ccccc1	46 nM
CCCCC(C(=O)N[C@@H](CC(=O)O)C(=O)COc1ccccc1)n1cccc(NC(=O)c2cccc3ccccc23)c1=O (some centres not stated)	5.3 nM
O=C(O)C[C@H](NC(=O)Cn1cccc(NC(=O)c2cccc3ccccc23)c1=O)C(=O)COc1ccccc1	39 nM
Cc1ccc(NC(=O)c2cccc3ccccc23)c(=O)n1CC(=O)N[C@@H](CC(=O)O)C(=O)COc1ccccc1	95 nM
Cc1ccc(NC(=O)c2ccc3ccccc3c2)c(=O)n1CC(=O)N[C@@H](CC(=O)O)C(=O)COc1ccccc1	160 nM
CCCC(C(=O)N[C@@H](CC(=O)O)C(=O)COc1ccccc1)n1cccc(NC(=O)c2cccc3ccccc23)c1=O (some centres not stated)	1.8 nM
CC(C(=O)N[C@@H](CC(=O)O)C(=O)COc1ccccc1)n1cccc(NC(=O)c2ccc3ccccc3c2)c1=O (some centres not stated)	14 nM
CCCC(C(=O)N[C@@H](CC(=O)O)C(=O)COc1ccccc1)n1c(C)ccc(NC(=O)c2ccc3ccccc3c2)c1=O (some centres not stated)	2200 nM
CC(C)[C@H](NC(=O)c1ccc2ccccc2c1)C(=O)N1CCCC[C@H]1C(=O)NC(CC(=O)O)C(=O)COc1ccccc1 (some centres not stated)	0.15 nM
CCCCCCc1ccc(NC(=O)c2cccc3ccccc23)c(=O)n1CC(=O)N[C@@H](CC(=O)O)C(=O)COc1ccccc1	40 nM
C=CCC(C(=O)N[C@@H](CC(=O)O)C(=O)COc1ccccc1)n1cccc(NC(=O)c2ccc3ccccc3c2)c1=O (some centres not stated)	1.5 nM
CC(C(=O)N[C@@H](CC(=O)O)C(=O)COc1ccccc1)n1cccc(NC(=O)c2cccc3ccccc23)c1=O (some centres not stated)	7 nM
O=C(O)C[C@H](NC(=O)Cn1cccc(NC(=O)c2ccc3ccccc3c2)c1=O)C(=O)COc1ccccc1	45 nM
O=C(O)C[C@H](NC(=O)Cn1c(-c2ccccc2)ccc(NC(=O)c2cccc3ccccc23)c1=O)C(=O)COc1ccccc1	25 nM
CC(C)[C@H](NC(=O)c1ccc2ccccc2c1)C(=O)N1CCC[C@H]1C(=O)NC(CC(=O)O)C(=O)COc1ccccc1 (some centres not stated)	0.2 nM
